Experimental data from the supplement of paper PMC8671470.

Tests used:
Conditions in all cases: 72 h
KU-812 [1] = test system: KU-812
Outline: (§1)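 Fifteen myeloid leukaemia lines were incubated for 72 h at 37 °C with 5% CO2 across five tenfold doses from 1 to 10,000 nM, in duplicate. ATP luminescence was normalised to vehicle and to a positive control at 10 µM and fitted with a four-parameter log-logistic model. The IC50 came from these dose–response fits.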

Mono-Mac-6 [2] = test system: Mono-Mac-6
Outline: as §1

BV-173 [3] = test system: BV-173
Outline: as §1

HL-60 [4] = test system: HL-60
Outline: as §1

LAMA-84 [5] = test system: LAMA-84
Outline: as §1

HEL [6] = test system: HEL
Outline: as §1

KG-1 = test system: KG-1
Outline: as §1

MV4-11 = test system: MV4-11
Outline: as §1

SHI-1 [7] = test system: SHI-1
Outline: as §1

MOLM-13 = test system: MOLM-13
Outline: as §1

NOMO-1 [8] = test system: NOMO-1
Outline: as §1

ML-2 [9] = test system: ML-2
Outline: as §1

KCL-22 [10] = test system: KCL-22
Outline: as §1

THP-1 = test system: THP-1
Outline: as §1

K-562 [11] = test system: K-562
Outline: as §1

HL-60 [12] = test: area under dose-response curve (viability, 1 nM-10 uM) (fraction (0-1)); higher = more sensitive
Outline: (§2)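 For each screen, HL-60 cells in RPMI 1640 with 10% FBS carried either DMSO or 100 nM of one of three metabolic inhibitors while the full library was applied at five tenfold concentrations, 1–10,000 nM, in duplicate. Plates were 384-well and were kept 72 h at 37 °C, 5% CO2. Viability, measured by CellTiter-Glo, was normalised to wells with DMSO and with 10 μM proteasome inhibitor. Where area under the curve appears, it was fitted by four-parameter log-logistic models in drc and PharmacoGx.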

KU-812 [13] = test: cell viability (% survival relative to DMSO control, bortezomib = 0%); higher = less cytotoxic
Outline: (§3)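 Reported values are percent survival from duplicate wells, averaged. Fifteen myeloid leukaemia cell lines were treated in 384-well plates with compounds at 1, 10, 100, 1000 or 10000 nM for 72 h at 37 °C in 5% CO2. Signals from CellTiter-Glo luminescence were scaled with vehicle as 100% and a 10 µM positive control as 0%.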

Mono-Mac-6 [14] = test: as above
Outline: as §3

BV-173 [15] = test: as above
Outline: as §3

HL-60 [16] = test: as above
Outline: as §3

LAMA-84 [17] = test: as above
Outline: as §3

HEL [18] = test: as above
Outline: as §3

SHI-1 [19] = test: as above
Outline: as §3

NOMO-1 [20] = test: as above
Outline: as §3

ML-2 [21] = test: as above
Outline: as §3

KCL-22 [22] = test: as above
Outline: as §3

K-562 [23] = test: as above
Outline: as §3

HL-60 [24] = test: cell viability (% survival relative to DMSO control); higher = less cytotoxic
Outline: as §2

CC1(C)[C@@H](O[C@H]2O[C@H](C(=O)O)[C@@H](O)[C@H](O)[C@H]2O[C@@H]2O[C@H](C(=O)O)[C@@H](O)[C@H](O)[C@H]2O)CC[C@]2(C)[C@H]3C(=O)C=C4[C@@H]5C[C@@](C)(C(=O)O)CC[C@]5(C)CC[C@@]4(C)[C@]3(C)CC[C@@H]12 [Glycyrrhizin]
Conditions | IC50 (cell viability) [µM]
BV-173 [3] | > 10
HEL [6] | > 10
HL-60 [4] | > 10
K-562 [11] | > 10
KCL-22 [10] | > 10
KG-1 | > 10
KU-812 [1] | > 10
LAMA-84 [5] | > 10
ML-2 [9] | > 10
MOLM-13 | > 10
MV4-11 | > 10
Mono-Mac-6 [2] | > 10
NOMO-1 [8] | > 10
SHI-1 [7] | > 10
THP-1 | > 10

Conditions | area under dose-response curve, co-treatment: AZD3965 100 nM | area under dose-response curve, co-treatment: DMSO vehicle | area under dose-response curve, co-treatment: GSK2194069 100 nM | area under dose-response curve, co-treatment: pictilisib 100 nM | cell viability, 1 nM [%] | cell viability, 10 nM [%] | cell viability, 100 nM [%] | cell viability, 1000 nM [%] | cell viability, 10000 nM [%]
BV-173 [15] | – | – | – | – | 88.9 | 109 | 117 | 95.4 | 83.4
HEL [18] | – | – | – | – | 99.8 | 108 | 107 | 109 | 84.8
HL-60 [12] | < 0.0301 | < 0.0301 | < 0.0301 | < 0.0301 | – | – | – | – | –
HL-60 [16] | – | – | – | – | 74.5 | 101 | 113 | 103 | 98.7
K-562 [23] | – | – | – | – | 88.7 | 87.5 | 102 | 91.6 | 83.4
KCL-22 [22] | – | – | – | – | 89.9 | 95.3 | 105 | 99.3 | 97.2
KU-812 [13] | – | – | – | – | 87.4 | 92 | 107 | 99.6 | 84.3
LAMA-84 [17] | – | – | – | – | 94.9 | 98.8 | 98.7 | 92.7 | 102
ML-2 [21] | – | – | – | – | 101 | 110 | 104 | 114 | 99.5
Mono-Mac-6 [14] | – | – | – | – | 94.1 | 103 | 104 | 94.8 | 89
NOMO-1 [20] | – | – | – | – | 97.5 | 107 | 103 | 100 | 93.4
SHI-1 [19] | – | – | – | – | 95.5 | 100 | 114 | 105 | 97.2

cell viability [%], HL-60 [24]
Conditions | 0.001 µM | 0.01 µM | 0.1 µM | 1 µM | 10 µM
co-treatment: AZD3965 100 nM | 103 | 102 | 102 | 102.6 | 105
co-treatment: DMSO vehicle | 102 | 103 | 95.5 | 98.7 | 101
co-treatment: GSK2194069 100 nM | 102 | 100 | 105 | 110.4 | 104
co-treatment: pictilisib 100 nM | 94 | 99.5 | 99.1 | 97.7 | 103

Nc1ccccc1C(=O)C[C@H](N)C(=O)O [L-Kynurenine]
Conditions | IC50 (cell viability) [µM]
BV-173 [3] | > 10
HEL [6] | > 10
HL-60 [4] | > 10
K-562 [11] | > 10
KCL-22 [10] | > 10
KG-1 | > 10
KU-812 [1] | > 10
LAMA-84 [5] | > 10
ML-2 [9] | > 10
MOLM-13 | > 10
MV4-11 | > 10
Mono-Mac-6 [2] | > 10
NOMO-1 [8] | > 10
SHI-1 [7] | > 10
THP-1 | > 10

Conditions | area under dose-response curve, co-treatment: AZD3965 100 nM | area under dose-response curve, co-treatment: DMSO vehicle | area under dose-response curve, co-treatment: GSK2194069 100 nM | area under dose-response curve, co-treatment: pictilisib 100 nM | cell viability, 1 nM [%] | cell viability, 10 nM [%] | cell viability, 100 nM [%] | cell viability, 1000 nM [%] | cell viability, 10000 nM [%]
BV-173 [15] | – | – | – | – | 108 | 90.1 | 101 | 107 | 102
HEL [18] | – | – | – | – | 117 | 80.1 | 102 | 104 | 92.7
HL-60 [12] | < 0.0301 | < 0.0301 | < 0.0301 | < 0.0301 | – | – | – | – | –
HL-60 [16] | – | – | – | – | 122 | 100 | 111 | 105 | 109
K-562 [23] | – | – | – | – | 104 | 125 | 93.3 | 101 | 110
KCL-22 [22] | – | – | – | – | 104 | – | 96.6 | 103 | 97.3
KU-812 [13] | – | – | – | – | 98.8 | 90.5 | 99.5 | 106 | 99.2
LAMA-84 [17] | – | – | – | – | 105 | 105 | 100 | 107 | 107
ML-2 [21] | – | – | – | – | 107 | 103 | 103 | 100 | 98.7
Mono-Mac-6 [14] | – | – | – | – | 101 | 91.7 | 102 | 93.8 | 95.9
NOMO-1 [20] | – | – | – | – | 102 | 96.3 | 99 | 117 | 101
SHI-1 [19] | – | – | – | – | 120 | 102 | 90.6 | 104 | 98.4

cell viability [%], HL-60 [24]
Conditions | 0.001 µM | 0.01 µM | 0.1 µM | 1 µM | 10 µM
co-treatment: AZD3965 100 nM | 93.4 | 77.9 | 104 | 99.66 | 104
co-treatment: DMSO vehicle | 92.2 | 96.4 | 100.5 | 99 | 106.8
co-treatment: GSK2194069 100 nM | 96.6 | 94.9 | 101 | 98.86 | 100
co-treatment: pictilisib 100 nM | 88.1 | 95.5 | 103 | 94.5 | 105
